Test results from patent US7968526B2, “Antisense oligonucleotides directed to ribonucleotide reductase R2 and uses thereof in the treatment of cancer” (Lorus Therapeutics Inc., priority 2003, dated 2011).
“Also recorded” adds a separate entry of the source.

Assays:
[1] = system: Caki-1 human kidney cancer cells; experiment: Caki-1 kidney tumour growth in CD-1 nude mice (3.8); format: in vivo, human cells in mice
Method: Treatments lasted for 14 days thereafter. Antitumour activities were estimated by the inhibition of tumour volume, which was measured with a caliper on four different occasions over the treatment period. Each point represents mean tumour volume calculated from 5 animals per experimental group. […] Control animals (control) received saline alone for the same period. At the end of the treatments, the animals were sacrificed, tumours were excised and their weights were measured. Each bar represents mean tumour weight calculated from 6 animals per experimental group. […] Treatments lasted for 24 days thereafter. Antitumour activities were estimated by the inhibition of tumour volume, which was measured with a caliper at two-day intervals over the treatment period. Each point represents mean tumour volume calculated from 4 animals per experimental group. […] Treatments lasted for 24 days thereafter. Antitumour activities were estimated by the inhibition of tumour volume, which was measured with a caliper at two-day intervals over the treatment period. Each point represents mean tumour volume calculated from 4 animals per experimental group. […] Each point represents mean tumour volume calculated from 5 animals per experimental group. […] Antitumour activities were estimated by the inhibition of tumour volume, which was measured with a caliper on four different occasions over 16-day period. […]

[2] = system: Caki-1 human renal cancer cells; experiment: Caki-1 renal tumour xenograft, combination with 5-FU or vinblastin (1.3); format: in vivo, human cells in mice
Excerpt: All treatments were stopped at day 22. […] All treatments were stopped at day 32. […] All treatments were stopped at day 36.

[3] = system: MDA-CDDP-S4 human in vivo-selected Cisplatin-resistant breast adenocarcinoma cells; experiment: MDA-CDDP-S4 Cisplatin-resistant breast adenocarcinoma, fat pad, CB-17 SCID mice, combination with Taxol (2.4); parameters: species or system human cells in mice; details: SEQ ID NO:1 10 mg/kg i.v. every other day, Taxol 10 mg/kg i.p. weekly; for Tumour weight as % of saline control: MDA-CDDP-S4 (breast), Cisplatin resistant, SCID
Method: BxPC-3 is a gemcitabine resistant call line. […] Gemcitabine was administered intravenously every three days at a dose of 100 mg/kg. Antitumour activities were estimated by the inhibition of tumour volume, which was measured with caliper. Each point represents mean tumour volume calculated from 10 animals per experimental group. […] Hela S3 is a hydroxyurea resistant cell line. […] Hydroxyurea was administered intraperitoneally every day at a dose of 250 mg/kg for 10 days. Cisplatin was administered intravenously once a week for three weeks at a dose of 4 mg/kg. Antitumour activities were estimated by the inhibition of tumour volume, which was measured with caliper. Each point represents mean tumour volume calculated from 10 animals per experimental group. […] Cisplatin was administered intravenously once a week for three weeks at a dose of 4 mg/kg. Taxol was administered intravenously once a week for three weeks at a dose of 10 mg/kg. Antitumour activities were estimated by the inhibition of tumour volume, which was measured with caliper. Each point represents mean tumour volume calculated from 10 animals per experimental group. […] Taxol was administered i.p. once a week at a dose of 10 mg/kg. Antitumour activities were estimated by the inhibition of tumour volume (FIG. 12A), which was measured with calipers. Each point represents mean tumour volume calculated from 10 animals per experimental group. Animals were sacrificed and tumour weights taken at the end of the study (FIG. 12C). […] Cisplatin was administered intravenously once a week for four weeks at a dose of 4 mg/kg. Taxol was administered intravenously once a week for four weeks at a dose of 20 mg/kg. Antitumour activities were estimated by the inhibition of tumour volume, which was measured with caliper. Each point represents mean tumour volume calculated from 9-10 animals per experimental group. […] Cisplatin was administered intravenously once a week for four weeks at a dose of 4 mg/kg. Antitumour activities were estimated by the inhibition of tumour volume, which was measured with caliper. Each point represents mean tumour volume calculated from 10 animals per experimental group. At the end of the study the animals were sacrificed and tumours weighed. […] Taxol was administered i.p. once a week at a dose of 10 mg/kg. Anti-tumour activity was estimated by the inhibition of tumour volume, which was measured with caliper. Each point represents mean tumour volume calculated from 10 animals per experimental group. In addition animals were sacrificed and tumour weights taken at the end of the study. […] CPT-11 was administered i.p. for 5 days at a dose of 20 mg/kg/day. Antitumour activities were estimated by the inhibition of tumour volume, which was measured with caliper. Each point represents mean tumour volume calculated from 10 animals per experimental group. Tumour weights were measured after animals were sacrificed at the end of the treatment. These cells are not resistant to CPT-11 which was used as a positive control.

5′-GGCTAAATCGCTCCACCAAG-3′ (all phosphorothioate, sugars by position and methylation of C not given here) [SEQ ID NO: 1, fully phosphorothioated antisense oligonucleotide that hybridizes to the coding region of R2 mRNA]
Inhibitory effect on tumour growth (tumour volume, FIG. 21A) ([1]; Caki-1, CD-1 nude mice, 10 mg/kg i.v. every other day to day 36): powerful inhibitory effects on the growth of human renal carcinoma cells, resulting in total regression of the tumours in three mice
Inhibition of tumour size ([1]; Human Renal Carcinoma (first entry of Table 5)): Approximately 90% inhibition of tumour size
Tumour weight as % of saline control ([2]; Caki (renal), CD-1 mouse as printed, SEQ ID NO:1 10 mg/kg i.v. every other day, 5-FU 13 mg/kg/day i.p., vinblastin 0.6 mg/kg/week i.p.): 3.3%
Antitumour effect (tumour weight, FIG. 3A) ([2]; Caki-1, SCID mice, SEQ ID NO:1 10 mg/kg i.v. every other day, 5-FU 13 mg/kg/day i.p., vinblastin 0.6 mg/kg/week i.p.): significant delay of tumour growth compared to saline control; also recorded: superior to the inhibitory effects observed with each of two chemotherapeutic compounds
Inhibition of tumour size ([2]; Human Renal Carcinoma^2 (second entry of Table 5)): Approximately 97% inhibition of tumour size
Tumour weight as % of saline control ([3]; first of two printed values (study and repeat)): 18%
Tumour weight as % of saline control ([3]; second of two printed values (study and repeat)): 41%
Antitumour effect (FIG. 12) ([3]; MDA-CDDP-S4 Cisplatin-resistant, CB-17 SCID mice): significant reduction of tumour weight compared to saline control; also recorded: superior to the inhibitory effects observed with Taxol
